Drawing on PubChem BioAssay (NCI), this text covers TGI for 13 compounds.

Some test systems named below: EKVX NSCLC; OVCAR-3 ovarian; TK-10 renal; SN12C renal; NCI-H522 lung; HT29 colon; SK-MEL-28 melanoma; SNB-75 CNS; HL-60(TB) leukemia; MALME-3M melanoma; HOP-62 NSCLC; A498 renal.
Common to all, as to assay: NCI tumour cell line growth inhibition, 48 h

SMILES strings stand for the structures.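 A five-concentration, 48-hour dose response in 96-well plates underlies each endpoint, interpolated linearly between surrounding concentrations. Definition used: TGI = concentration required for complete inhibition of growth.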

Turning to `COc1ccc(/C=C2\C(=O)N(C(=O)c3ccc(NC(C)=O)cc3)N=C2C)cc1OC`, the TGI in the assay on EKVX NSCLC, in the assay on OVCAR-3 ovarian, in the assay on TK-10 renal, with SN12C renal, with NCI-H522 lung and in the assay with HT29 colon was > 100 µM throughout. Besides, the TGI in the assay with SK-MEL-28 melanoma, with SNB-75 CNS, in the assay on HL-60(TB) leukemia, in the assay on MALME-3M melanoma and in the assay with HOP-62 NSCLC was > 100 µM throughout.
Take `NC(=O)N/N=C(\Cc1cc(=O)oc2cc(O)ccc12)C(=O)Nc1ccccc1C(N)=O`: the TGI with EKVX NSCLC, in the assay on OVCAR-3 ovarian, in the assay with TK-10 renal, in the assay with SN12C renal, in the assay with NCI-H522 lung and in the assay on HT29 colon was > 100 µM each time. Also, the TGI with SK-MEL-28 melanoma, in the assay on SNB-75 CNS, with HL-60(TB) leukemia and with HOP-62 NSCLC was > 100 µM throughout.
For `O=[N+]([O-])C1=Cc2c(O)ccc(O)c2C2OC=CC12` (stereo not given), the TGI with EKVX NSCLC was found to be 36.8 µM; in the assay on OVCAR-3 ovarian, 21.3 µM; in the assay with TK-10 renal, 30.3 µM; in the assay with SN12C renal it was 35 µM; with NCI-H522 lung, 18.1 µM; in the assay with HT29 colon it was 43.8 µM. The TGI with SK-MEL-28 melanoma was > 74.5 µM; in the assay on SNB-75 CNS, 49.5 µM; in the assay with HL-60(TB) leukemia, > 30.4 µM; in the assay on A498 renal, 30.1 µM; with HOP-62 NSCLC it was 35.2 µM.
As for `COC(=O)C12CCCN1CCC2`, the TGI with EKVX NSCLC, in the assay on OVCAR-3 ovarian, with TK-10 renal, with SN12C renal, in the assay on NCI-H522 lung and in the assay with HT29 colon was > 100 µM throughout. The TGI in the assay on SK-MEL-28 melanoma, with SNB-75 CNS, in the assay on MALME-3M melanoma and in the assay on HOP-62 NSCLC was > 100 µM in each case.
Turning to `CC(C)(C)c1ccc(O)c(C(O)c2ccccn2)c1` (stereo not given), the TGI in the assay with EKVX NSCLC, in the assay with OVCAR-3 ovarian, in the assay on TK-10 renal, in the assay with SN12C renal, with NCI-H522 lung and with HT29 colon was > 100 µM each time. In addition, the TGI in the assay with SK-MEL-28 melanoma, with SNB-75 CNS, with HL-60(TB) leukemia, with MALME-3M melanoma and in the assay with HOP-62 NSCLC was > 100 µM each time.
With `COC(=O)C12C(=O)CC3CCC1C32C(=O)OC` (stereo not given), the TGI in the assay with EKVX NSCLC, in the assay with OVCAR-3 ovarian, in the assay with TK-10 renal, in the assay on SN12C renal, in the assay on NCI-H522 lung and in the assay with HT29 colon was > 100 µM throughout. In addition, the TGI with SK-MEL-28 melanoma, in the assay with SNB-75 CNS, with MALME-3M melanoma and in the assay with HOP-62 NSCLC was > 100 µM throughout.
Turning to `CC(=O)Oc1ccc2c(c1)O/C(=C\c1ccc(N(C)C)cc1)C2=O`, the TGI with EKVX NSCLC is > 100 µM; in the assay on TK-10 renal, > 100 µM; in the assay with SN12C renal, > 100 µM; in the assay on NCI-H522 lung, 66.2 µM; with HT29 colon, > 100 µM; in the assay with SK-MEL-28 melanoma, > 100 µM. Moreover, the TGI with SNB-75 CNS, with HL-60(TB) leukemia and in the assay with HOP-62 NSCLC was > 100 µM throughout.
Regarding `CCOC(=O)c1ccc(-c2onc(C)c2Br)[nH]1`, the TGI with EKVX NSCLC, in the assay on OVCAR-3 ovarian, in the assay on TK-10 renal, in the assay with NCI-H522 lung, in the assay on HT29 colon and in the assay with SK-MEL-28 melanoma was > 100 µM throughout. Also, the TGI in the assay on SNB-75 CNS, in the assay with MALME-3M melanoma, with A498 renal and in the assay with HOP-62 NSCLC was > 100 µM throughout.
With `C[C@]12CC[C@H]3[C@@H](CC=C4C[C@@H](N5CCCC5)CC[C@@]43C)[C@@H]1C/C(=C\c1ccc([N+](=O)[O-])cc1)[C@@H]2O`, the TGI was 31.5 µM in the assay with OVCAR-3 ovarian; 35.8 µM in the assay on TK-10 renal; 27.5 µM in the assay with SN12C renal; 32 µM with NCI-H522 lung; 27.4 µM in the assay on HT29 colon; 28.2 µM with SK-MEL-28 melanoma. Moreover, the TGI in the assay on MALME-3M melanoma is 32.1 µM; in the assay on A498 renal, 28.6 µM; in the assay with HOP-62 NSCLC, 32 µM.
On to `Cc1cccc(C)c1NC(=S)N/C=C(\C#N)C(N)=O`, for which the TGI with EKVX NSCLC, in the assay on OVCAR-3 ovarian, with TK-10 renal, in the assay on SN12C renal, in the assay on NCI-H522 lung and in the assay on HT29 colon was > 100 µM each time. The TGI with SK-MEL-28 melanoma, in the assay with MALME-3M melanoma and in the assay with HOP-62 NSCLC was > 100 µM each time.
With `CN1CCN(c2n[nH]c(=O)c3c2nnn3Cc2ccccc2)CC1`, the TGI in the assay with EKVX NSCLC, in the assay with OVCAR-3 ovarian, in the assay on TK-10 renal, in the assay on SN12C renal, in the assay on HT29 colon and in the assay on SK-MEL-28 melanoma was > 100 µM in each case. The TGI in the assay on SNB-75 CNS, with HL-60(TB) leukemia, with MALME-3M melanoma and in the assay on HOP-62 NSCLC was > 100 µM in each case.
Turning to `O=[N+]([O-])C(/C(Cl)=C(/Cl)N1CCOCC1)=C1\Nc2ccccc2O1`, the TGI in the assay on EKVX NSCLC, in the assay with OVCAR-3 ovarian, in the assay on SN12C renal, in the assay with HT29 colon, in the assay on SK-MEL-28 melanoma and in the assay with SNB-75 CNS was > 100 µM in each case. For the same compound, the TGI with MALME-3M melanoma, in the assay with A498 renal and with HOP-62 NSCLC was > 100 µM in each case.
On to `O=C(O)CSC1=NCCN1`, for which the TGI in the assay on EKVX NSCLC, in the assay on OVCAR-3 ovarian, in the assay with TK-10 renal, with SN12C renal, in the assay on NCI-H522 lung and in the assay on HT29 colon was > 100 µM in each case. The TGI with SK-MEL-28 melanoma, with SNB-75 CNS, in the assay with MALME-3M melanoma, with A498 renal and in the assay with HOP-62 NSCLC was > 100 µM each time.
